Values belong to the compound of their own block, whether it stands above or below them.
What was measured:
renal cortex and medulla = assay: Neonatal capsaicin treatment plus NS or HS diet: renal superoxide, SOD and NAD(P)H oxidase subunits; parameters: species or system rat
Description: Enhanced oxidative stress in kidneys of salt-sensitive hypertension: role of sensory nerves (Am J Physiol Heart Circ Physiol 291: H3136-H3143, 2006). To determine the mechanism(s) underlying enhanced oxidative stress in kidneys of salt-sensitive hypertension, neonatal Wistar rats were given vehicle or capsaicin (CAP, 50 mg/kg sc) on the first and second days of life. After being weaned, male rats were assigned into four groups and treated for 2 wk with the following: vehicle+a normal sodium diet (NS, 0.4%, CON-NS), vehicle+a high-sodium diet (HS, 4%, CON-HS), CAP+NS (CAP−NS), and CAP+HS (CAP−HS). […] Plasma and urinary 8-iso-prostaglandin F2alpha levels increased by approximately 40% in CON-HS and CAP−HS rats compared with their respective controls fed a NS diet (P≦0.05), and these parameters were higher in CAP−HS compared with CON-HS rats. Superoxide (O2—) levels in the renal cortex and medulla increased by approximately 45% in CAP−HS compared with CON-HS, CON-NS, and CAP−NS rats (P≦0.05). […]

WT and TRPV1−/− hearts = assay: OLDA-induced CGRP and SP release from hearts (radioimmunoassay); parameters: species or system mouse
[1] = system: Wistar rats (Con-NS, Con-HS, Cap-NS, Cap-HS); assay: Natriuretic, diuretic and depressor effects of i.v. diuretics in control and capsaicin-pretreated rats on normal or high sodium diet; format: in vivo, rat; details: intravenous
Description: (a) Urine flow rate. (b) Urine sodium excretion. […] (c) Mean arterial pressure. […] Vehicle; trichlormethiazide.
(a) Urine flow rate. (b) Urine sodium excretion. […] (c) Mean arterial pressure.
(a) Urine flow rate. (b) Urine sodium excretion. […] (c) Mean arterial pressure. […] Vehicle; amiloride.
Design and methods Neonatal Wistar rats were treated with capsaicin or vehicle. Seven-week-old male rats were treated for 2 weeks with: vehicle plus a normal (Con-NS) or high (Con-HS) sodium diet, and capsaicin pretreatment plus a normal (Cap-NS) or high (Cap-HS) sodium diet. Mean arterial pressure (MAP), renal excretory function, and protein expression determined by Western blot were performed.

[2] = system: high-salt plus capsaicin pretreated rats; details: rat, in vivo; cited from earlier work
[3] = system: Wistar rats fed a normal-salt (NS) or high-salt (HS) diet for 10 days; assay: MAP and HR responses to i.v. bolus NADA with or without antagonists in conscious rats; format: in vivo, rat; details: for prolonged depressor effect of NADA (decrease in MAP) after antagonist: NADA 4 mg/kg after CAPZ 3 mg/kg, CGRP8-37 infusion or SR141716A 3 mg/kg
Description: In brief: Wistar rats were fed a normal (NS, 0.4%) or high (HS, 4%) sodium diet for 10 days, then artery and vein were cannulated for measurement of mean arterial pressure (MAP) or for injection of drugs and collection of plasma.
Animal Preparation: Male Wistar rats (7 weeks old, Charles River Laboratory, Wilmington, Mass.) were housed in the animal facility for 1 week before the experiment. Rats were grouped randomly and pair-fed a NS (0.4% of Na^+ by weight) or HS (4% of Na^+ by weight) diet for 10 days. The rat chow was purchased from Harlan Teklad Diets (Madison, Wis.). Drinking water was available ad libitum throughout the experiment. All protocols were in accordance with the National Institutes of Health Guidelines for the Care and Use of Laboratory Animals.
(§1) Surgical Preparation Rats were anesthetized with ketamine and xylazine (80 and 4 mg/kg intraperitoneally, respectively) for cannulation or with urethane (1.5 g/kg intraperitoneally) for capsaicin administration. The left jugular vein, carotid and femoral artery were cannulated under anesthesia for injection of drugs or monitoring of mean arterial pressure (MAP) and heart rate (HR).
Three hours after surgery, baseline MAP and its response to the above-mentioned drugs were obtained with the rats fully awake and unrestrained [Wang et al., Am J Physiol 2004; 287:H1868-H[874]. NADA was injected in increasing doses (1, 4, and 10 mg/kg intravenous bolus) in 3 subgroups of rats (each group for each dose). To determine the role of TRPV1 and CB 1 receptor in NADA-induced hypotension, NADA (4 mg/kg) was injected 10 minutes or 20 minutes after intravenous injection of CAPZ (3 mg/kg) or SR141716A (3 mg/kg), respectively.
To examine the effect of CGRP8-37 on NADA-induced hypotension, CGRP8-37 was intravenously administered at the rate of 1 mg/kg/min for 2 minutes followed by injection at the rate of 0.5 mg/kg/min for 15 minutes. NADA (4 mg/kg) was injected 1 minute after CGRPs-37 administration. The effectiveness of the dose and time frame for CGRP8-37 injection was verified by blockade of the hypotensive response to capsaicin (30 μg/kg) (n=5).

TRPV1−/− hearts = assay: Preconditioning (PC) protection against I/R in Langendorff hearts with receptor antagonists, TRPV1-null; parameters: species or system mouse; details: CAPZ 10^−7 M, CGRP8-37 10^−6 M, RP67580 10^−7 M
Description: Male TRPV1 gene knockout (TRPV1-/-) strain B6.129S[…][…]^tm1Jul and matching control wild type (WT) strain C57BL/6J mice were used (Jackson Laboratory, Bar Harbor, Me.). Mice were heparinized (500 U/kg i.p.) and anesthetized with pentobarbital sodium (50 mg/kg i.p.). […] The distal end of the catheter was connected to a […] Performance Analyzer via a pressure transducer. Coronary flow (CF) was continuously measured using an ultrasonic flow probe placed in the aortic perfusion line. Hearts were paced at 400 bpm except during ischemic PC and sustained global ischemia to avoid inducing excessive ventricular tachyarrhythmia during reperfusion, and pacing was reinitiated 2 minutes after reperfusion. Left ventricular developed pressure (LVDP, peak systolic minuses LVEDP) and LV peak positive […]) during isovolumic contraction were used as indices of LV systolic function; LVEDP and the peak negative […] used as indices of LV diastolic function. […] Non-preconditioned hearts were time-matched perfused with the same duration as that of preconditioned hearts. Group 1: Controls. As normal controls (nonischemic), WT and TRPV1-/- hearts were perfused for 130 minutes. For I/R controls, WT and TRPV1-/- hearts were first perfused with Krebs-Henseleit buffer for 55 min (time-matched perfusion of the equilibration period plus the PC period), and subsequently subjected to 30 minutes of no-flow normothermic global ischemia followed by 40-minutes of reperfusion. Group 2: PC. […] The hearts were subjected to 30 minutes of no-flow normothermic global ischemia followed by 40-minutes of reperfusion as that of I/R control groups. Group 3: PC plus capsazepine (CAPZ). […] Two additional concentrations of CAPZ, 10^-6M and 10^-8 M, were used in WT hearts. An additional drug control was added. After a 20-minute equilibration period, WT hearts were perfused with CAPZ (10^-7 M) for 10 minutes without PC, followed by perfusion with Krebs-Henseleit buffer for 25 minutes (time-matched perfusion of the PC period) and then subjected to I/R. Group 4: […] […]

[4] = system: Wistar rats fed a NS or HS diet for 10 days; assay: MAP responses to i.v. capsaicin with or without CAPZ in urethane-anesthetized rats; format: in vivo, rat; details: CGRP8-37 infusion; capsaicin 30 μg/kg
Description: as §1
Each dose of injection was separated by a 30-minute interval. To determine the specificity of capsaicin, CAPZ (3 mg/kg) was administered 10 minutes before capsaicin injection in a separate group.

hearts of WT mice = assay: Langendorff perfused heart, ischemia and reperfusion (I/R) with OLDA, wild type; parameters: species or system mouse; details: antagonist 1×10^−6 M
Description: The following measurements were made on the two types of heart tissue: left ventricular end-diastolic pressure (LVEDP), left ventricular developed pressure (LVDP), coronary flow (CF), and left ventricular (LV) peak positive rate of pressure change/rate of time change (+dP/dt) were evaluated after I/R.

WT hearts [5] = assay: Preconditioning (PC) protection against I/R in Langendorff hearts with receptor antagonists, wild type; parameters: species or system mouse
Description: Male TRPV1 gene knockout (TRPV1-/-) strain B6.129S[…][…]^tm1Jul and matching control wild type (WT) strain C57BL/6J mice were used (Jackson Laboratory, Bar Harbor, Me.). Mice were heparinized (500 U/kg i.p.) and anesthetized with pentobarbital sodium (50 mg/kg i.p.). […] The distal end of the catheter was connected to a […] Performance Analyzer via a pressure transducer. Coronary flow (CF) was continuously measured using an ultrasonic flow probe placed in the aortic perfusion line. Hearts were paced at 400 bpm except during ischemic PC and sustained global ischemia to avoid inducing excessive ventricular tachyarrhythmia during reperfusion, and pacing was reinitiated 2 minutes after reperfusion. Left ventricular developed pressure (LVDP, peak systolic minuses LVEDP) and LV peak positive […]) during isovolumic contraction were used as indices of LV systolic function; LVEDP and the peak negative […] used as indices of LV diastolic function. […] Non-preconditioned hearts were time-matched perfused with the same duration as that of preconditioned hearts. Group 1: Controls. As normal controls (nonischemic), WT and TRPV1-/- hearts were perfused for 130 minutes. For I/R controls, WT and TRPV1-/- hearts were first perfused with Krebs-Henseleit buffer for 55 min (time-matched perfusion of the equilibration period plus the PC period), and subsequently subjected to 30 minutes of no-flow normothermic global ischemia followed by 40-minutes of reperfusion. Group 2: PC. […] The hearts were subjected to 30 minutes of no-flow normothermic global ischemia followed by 40-minutes of reperfusion as that of I/R control groups. Group 3: PC plus capsazepine (CAPZ). […] Two additional concentrations of CAPZ, 10^-6M and 10^-8 M, were used in WT hearts. An additional drug control was added. After a 20-minute equilibration period, WT hearts were perfused with CAPZ (10^-7 M) for 10 minutes without PC, followed by perfusion with Krebs-Henseleit buffer for 25 minutes (time-matched perfusion of the PC period) and then subjected to I/R. Group 4: […] Two additional concentrations of CGRP8-37, 10^-5 M and 10^-7 M, were used in WT hearts. An additional drug control of CGRP8-37 was added as that of the CAPZ control group. Group 5: PC plus RP67580. To determine the role of endogenous SP during PC, hearts from WT and TRPV1-/-mice were perfused as that of CAPZ with RP67580 (10^-7 M), a selective neurokinin-1 (NK1) receptor antagonist. Two additional concentrations of RP67580, 10^-6 M and 10^-8 M, were used in WT hearts. An additional drug control of RP67580 was added as that of the CAPZ control group.

male Wistar rats = assay: Depressor effect of 20-HETE analog DSR given IV, with or without antagonists; format: in vivo, rat; details: DSR 1 mg/kg with CAPZ 3 mg/kg, RP67580 4 mg/kg or CGRP 8-37 3 mg/kg
WT hearts [6] = assay: Lactate dehydrogenase (LDH) release during I/R; parameters: species or system mouse
Description: Lactate dehydrogenase (LDH) release: In addition to the measurement of cardiac function, cardiac injury was assessed by measuring LDH release. Perfusion effluent was collected during the first 10 minutes to 20 minutes of I/R and stored at […] until analyzed. Total LDH levels were determined with the use of a CytoTox 96 assay (Promega). The data were expressed as absorbance units released per milliliter per minute per gram of heart wet tissues (Turnbull et al., Am J Physiol Heart Circ Physiol 290: […]-9, 2006; herein incorporated by reference).

O2— production in renal cortex after ex vivo incubation (renal cortex and medulla; apocynin 0.1 mM, CAP−HS rats): 2.83 0.38 nmol_min—1_mg dry wt—1
O2— production in renal medulla after ex vivo incubation (renal cortex and medulla; apocynin 0.1 mM, CAP−HS rats): 1.73 0.23 nmol_min—1_mg dry wt—1
effect on O2— production (renal cortex and medulla; apocynin, CON-HS, CON-NS and CAP−NS rats): no significant effects
effect on enhanced O2— levels in cortex and medulla of CAP−HS rats (renal cortex and medulla; preincubation of renal tissues with apocynin): prevented
Compound: COc1cc(C(C)=O)ccc1O [apocynin]

Compound: COc1ccc2c(c[n+](C)c3c4cc5c(cc4ccc23)OCO5)c1OC [chelerythrine]
effect on OLDA-increased CGRP and SP release in WT hearts (WT and TRPV1−/− hearts): blocked

Compound: NS(=O)(=O)c1cc(C(=O)O)c(NCc2ccco2)cc1Cl [furosemide]
effect on MAP (words) [1]: decreased MAP in Cap-HS but not in Cap-NS, Con-NS, and Con-HS rats
time of peak urine flow rate (UFR) after injection [1]: 5 min
effect on MAP (words) ([1]; listed as Furosemide): decreased MAP in Cap-HS rats only

Compound: CCCCc1nc(Cl)c(CO)n1Cc1ccc(-c2ccccc2-c2nn[nH]n2)cc1 [losartan]
effect on the impaired natriuretic response [2]: unable to prevent
prevention of the development of salt-induced hypertension [2]: prevented

Compound: NS(=O)(=O)c1cc2c(cc1Cl)NC(C(Cl)Cl)NS2(=O)=O (stereo not shown) [trichlormethiazide]
effect on MAP (words) [1]: decreased MAP in Cap-HS but not in Cap-NS, Con-NS, and Con-HS rats
time of peak urine flow rate (UFR) after injection [1]: 10 min
urine flow / urine sodium excretion (words) [1]: significantly increased
effect on MAP (words) ([1]; listed as Trichlormethiazide): decreased MAP in Cap-HS rats only
urine flow / urine sodium excretion (words) ([1]; listed as Trichlormethiazide): increased

Compound: CGRP8-37: selective calcitonin gene-related peptide (CGRP) receptor antagonist peptide
effect of antagonist on NADA-induced depressor effect ([3]; NADA 4 mg/kg): abolished
prolonged depressor effect of NADA (decrease in MAP) after antagonist ([3]; HS diet): 6±3 mmHg
prolonged depressor effect of NADA (decrease in MAP) after antagonist ([3]; NS diet): 5±2 mmHg
effect on these parameters in TRPV1−/− hearts (TRPV1−/− hearts): no effect
effect on hypotensive response to capsaicin [4]: blockade
effect on protective effect of OLDA in WT hearts (hearts of WT mice): abolished
effect on cardiac function in WT hearts without I/R (WT hearts [5]): no effect on cardiac function
effect on PC-induced cardiac protection (LVEDP, LVDP, CF, +dP/dt, −dP/dt) in WT hearts (WT hearts [5]; CAPZ 10^−7 M, CGRP8-37 10^−6 M, RP67580 10^−7 M): blocked PC-induced cardioprotective effects
DSR induced-depressor effect after antagonist (male Wistar rats): 9.3±3.3 mmHg
effect on PC protection assessed by LDH levels after I/R in WT hearts (WT hearts [6]): abolished
